{
  "source": "patent US9649324B2",
  "about": "“Use of tylvalosin as antiviral agent” (ECO ANIMAL HEALTH LIMITED, priority 2006, dated 2017)",
  "key": {"[1]": {"tested_on": "chicken white blood cells", "assay": "Intracellular accumulation in chicken white blood cells", "type": "in vitro ADME", "details": "chicken white blood cells", "description": "Pig blood was collected in Heparin-coated BD vacutainers (6). 20 mL of blood and 30 mL of phosphate buffered saline (PBS) were mixed in a 50 mL conical centrifuge tube. This was repeated in order to obtain 3 such tubes. The mixtures were centrifuged for 10 min at 2050×g. The white blood cells, together with some red blood cells below, were harvested into a 50 mL conical centrifuge tube. PBS was added to about 50 mL. A 63% solution of Percoll was made as follows: 6.3 mL Percoll (Sigma), 1.0 mL 1.5 M NaCl, 2.7 mL H2O. 10 mL of 63% Percoll was added to each of two 50 mL conical centrifuge tubes. 25 mL of the resuspended white blood cells were carefully layered on top of the each of the Percoll solutions. A sharp interface was produced. The material was centrifuged at 3000×g for 10 min. […] The white blood cells were harvested in PBS (50 mL) and centrifuged at 500×g for 10 min. The cell pellet was resuspended in medium (Glasgow minimum essential medium containing penicillin and streptomycin). A viable cell count was made using trypan blue. The same method used for isolation of pig WBCs was used for the chicken WBCs, with the exception that heparin (100 I.U./mL) was prepared and mixed with an equal volume of chicken whole blood.\nAll tubes were placed on a rotary mixing machine, at 37° C. Supernatant and cell samples were harvested at the times described in the figure legends. Duplicate samples were used for each antibiotic for each time point.\n(§1) All the supernatant and cell samples were transported frozen (at approximately −20° C.) to York Bioanalytical Solutions (York, England) for analysis. Briefly, 0.25 g of buffer (RPMI medium containing 10% FCS) was weighed into a polypropylene tube. A 50 μL volume of the appropriate working solution was added to the quality control (QC) samples. Methanol (50 μL) was added to each blank sample used for preparation of calibration standards, recovery samples and reagent blanks. A 2.5 mL volume of 0.1 M phosphate buffer was added to each sample, vortex mixed for approximately 1 min and then centrifuged at 3220×g for 10 min at 4° C.\n(§2) For the liquid-liquid clean-up phase, an aliquot (100 μL) of the supernatant was transferred to a polypropylene tube. The pH was adjusted to pH 8-8.5 by the addition of 0.1 M NaOH, and vortex mixed. Ethyl acetate (5 mL) was added and after capping, the whole mixture was shaken for 10 min and then centrifuged at 3220×g for 10 min at 4° C.\n(§3) Ammonium acetate (20 mM; pH native)—formic acid, 1000:3, v/v (100 μL) was added to each well in a 2 mL polypropylene collection plate. An aliquot of the ethyl acetate mixture (100 μL) was transferred to the polypropylene collection plate and evaporated under nitrogen (40° C.) until the ethyl acetate was fully evaporated whilst the ammonium acetate remained. Methanol (100 μL) was added to each well, excluding the calibration standards.\n(§4) To each well containing a calibration standard, 100 μL of the appropriate calibration working solution was added. Samples were then vortex mixed for at least 10 min and submitted for liquid chromatography with tandem mass spectrometric analysis. The method stated was applicable to the samples of media (and the calibration standards and quality control samples).\n(§5) For the cells, the sample tubes were weighed, and 100 μL of acetonitrile was added. The samples were vortex mixed for 10 sec, then centrifuged at 10285×g at 4° C. for 5 min. The sample was transferred to a polypropylene tube. The original sample tube was washed with 0.1 M phosphate buffer (1 mL). This was transferred to the polypropylene tube. A second wash of 1 mL was made, then a final wash of 0.5 mL. The polypropylene tube was now at the same stage as the end of the liquid extraction, but with the cells present rather than media. This was then taken through the sample preparation as described above. […]"}, "[2]": {"tested_on": "VR2332 (US strain of PRRSV)", "assay": "VR2332 (US strain of PRRSV) entry assay in MA104 cells (Example 10)", "details": "4 h pretreatment, moi 10, overnight"}, "[3]": {"details": "previous study (Tsuchiya et al., 1981); cited from earlier work"}, "HRT-18 cells": {"tested_on": "HRT-18 cells", "assay": "Intracellular accumulation of macrolides in HRT-18 cells", "type": "in vitro ADME, human", "details": "for average intracellular concentration / intracellular:extracellular ratio: 10 μg/mL antibiotic", "description": "HRT-18 cells, in 6 cm tissue cultures dishes, were incubated in the presence of 0.5, 5 or 50 μg/mL tylvalosin. After 4 h, two dishes for each tylvalosin concentration and two dishes without antibiotic were removed from the incubator. A sample of medium (about 1 mL) was removed, placed in a labelled Eppendorf tube and stored at −20° C. The rest of the medium was then removed. Each of the cell monolayers was washed twice in PBS, using approximately 5 mL for each wash. The plunger from a 2 mL plastic syringe was used to gently scrape off the cells. PBS (500 μL) was added to the dish and the cells gently removed into this medium, using a micropipette. The sample was then placed in an Eppendorf tube and centrifuged at 8000×g in a bench centrifuge (Biofuge pico, Heraeus instruments) for 13 sec. An obvious cell pellet formed. The supernatant was removed using a micropipette and the cell material was stored at −20° C. in a labelled Eppendorf tube. After approximately 24 h the remaining tissue culture dishes were removed from the incubator and treated as described above for the 4 h samples. All the samples, including the 4 h samples, were then stored at −70° C.\nHRT-18 cells were prepared as described above and used at passage 42. Stock solutions of antibiotics (either tylvalosin, tylosin or tilmicosin) were diluted in growth media and 10 μg/mL each antibiotic was added to the confluent cell monolayers. The cells were incubated at 37° C. in a 5% CO2 atmosphere for either 4 h or 24 h. The media and cells were harvested and tested for antibiotic, as described above.\nas §1, §2, §3, §4, §5"}, "[4]": {"tested_on": "equine arteritis virus (EAV)", "assay": "Effect on equine arteritis virus infection (Example 6)", "type": "cell-based", "description": "Experiments were carried out to determine whether tylvalosin has an effect on equine arteritis virus (EAV)."}, "PRRSV": {"tested_on": "PRRSV", "assay": "Inhibitors of PRRSV infection added at various times pre and post infection (Example 7)", "type": "cell-based"}, "[5]": {"details": "added 2 or 4 hours after infection"}},
  "data": [
    {"smiles": "CCC1OC(=O)CC(OC(C)=O)C(C)C(OC2OC(C)C(OC3CC(C)(O)C(OC(=O)CC(C)C)C(C)O3)C(N(C)C)C2O)C(CC=O)CC(C)C(=O)C=CC(C)=CC1COC1OC(C)C(O)C(OC)C1OC", "note": "(stereo not shown) [tylvalosin, 3-O acetyl-4″-O-isovaleryltylosin]", "values": [
      {"measurement": "average intracellular concentration", "setting": "[1]; 10 μg/mL, 15 min", "result": 89.8, "unit": "μg/mg cells"},
      {"measurement": "intracellular concentration", "setting": "[1]; 10 μg/mL, 60 min", "result": 122.9, "unit": "μg/mg cells"},
      {"measurement": "intracellular:extracellular ratio", "setting": "[1]; 60 min", "result": 19, "unit": "fold"},
      {"measurement": "inhibition of VR2332 infection", "setting": "[2]", "result": "sensitive"},
      {"measurement": "lipophilicity", "setting": "[3]", "result": "more lipophilic than either tylosin or 3AT"},
      {"measurement": "average intracellular concentration", "setting": "HRT-18 cells; HRT-18 cells, 4 h", "result": 61.8, "unit": "μg/mg cells"},
      {"measurement": "intracellular:extracellular ratio", "setting": "HRT-18 cells; HRT-18 cells, 4 h", "result": 5.13, "unit": "fold"},
      {"measurement": "average intracellular concentration", "setting": "HRT-18 cells; HRT-18 cells, 24 h", "result": 57.6, "unit": "μg/mg cells"},
      {"measurement": "intracellular:extracellular ratio", "setting": "HRT-18 cells; HRT-18 cells, 24 h", "result": 5.34, "unit": "fold"},
      {"measurement": "concentration of tylvalosin accumulated in the cells", "setting": "HRT-18 cells; HRT-18 cells, 0.5, 5 or 50 μg/mL tylvalosin, within 4 h", "result": "at least 585 μg"},
      {"measurement": "cell:medium concentration ratio", "setting": "HRT-18 cells; HRT-18 cells, 24 h incubation, compared with 4 h", "result": "lower"},
      {"measurement": "EAV infection", "setting": "[4]", "result": "not blocked"},
      {"measurement": "PRRSV spread", "setting": "PRRSV; [5]", "result": "inhibited"},
      {"measurement": "initial PRRSV infection (initial site of infection)", "setting": "PRRSV; [5]", "result": "inhibited"},
      {"measurement": "initial PRRSV infection", "setting": "PRRSV; added 4 hours before infection", "result": "inhibited"},
      {"measurement": "initial PRRSV infection", "setting": "PRRSV; added at the time of infection", "result": "inhibited"}
    ]}
  ]
}
